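Protocol summary: plate cells (96-well), add compound at 5 concentrations, incubate 48 h, interpolate endpoints linearly. GI50 = concentration required for 50% inhibition of growth. The concentration for full growth arrest is given as TGI.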
How the values were obtained:
Assay in all cases: DTP human tumour cell line panel, 48 h
[1] = system: KM12 colon
[2] = system: SK-MEL-5 melanoma
[3] = system: SR leukemia
[4] = system: HS 578T breast
[5] = system: SNB-75 CNS
[6] = system: M14 melanoma
[7] = system: SF-539 CNS
[8] = system: A549 NSCLC
[9] = system: NCI-H460 lung
[10] = system: RXF 393 renal
[11] = system: U251 CNS
[12] = system: UACC-257 melanoma
[13] = system: COLO 205 colon
[14] = system: HT29 colon
[15] = system: ACHN renal
[16] = system: SN12C renal
[17] = system: SNB-19 CNS
[18] = system: HCT-15 colon
[19] = system: LOX IMVI melanoma
[20] = system: OVCAR-3 ovarian
[21] = system: SF-268 CNS
[22] = system: HL-60(TB) leukemia
[23] = system: NCI-H226 lung
[24] = system: UACC-62 melanoma
[25] = system: SK-OV-3 ovarian
[26] = system: DU-145 prostate
[27] = system: A498 renal
[28] = system: NCI-H23 lung
[29] = system: MALME-3M melanoma
[30] = system: IGROV1 ovarian
[31] = system: UO-31 renal
[32] = system: OVCAR-8 ovarian
[33] = system: OVCAR-5 ovarian
[34] = system: CAKI-1 renal
[35] = system: MDA-MB-435
[36] = system: HOP-92 NSCLC
[37] = system: HCT-116 colon
[38] = system: CCRF-CEM leukemia
[39] = system: HOP-62 NSCLC
[40] = system: SK-MEL-28 melanoma
[41] = system: PC-3 prostate
[42] = system: MDA-MB-231 breast
[43] = system: MOLT-4 leukemia
[44] = system: SF-295 CNS
[45] = system: EKVX NSCLC
[46] = system: 786-0 renal
[47] = system: MCF7 breast
[48] = system: SK-MEL-2 melanoma
[49] = system: SW-620 colon
[50] = system: T-47D breast
[51] = system: TK-10 renal
[52] = system: OVCAR-4 ovarian
[53] = system: HCC-2998 colon
[54] = system: NCI-H522 lung
[55] = system: BT-549 breast
[56] = system: NCI/ADR-RES ovarian
[57] = system: RPMI-8226 leukemia

N#CSc1c[nH]c2ccc(/C=C/C(=O)/C=C(O)/C=C/c3ccc4[nH]cc(SC#N)c4c3)cc12
GI50 [1]: 1.66 µM
TGI [1]: 5.47 µM
GI50 [2]: 1.52 µM
TGI [2]: 3.48 µM
GI50 [3]: 0.505 µM
TGI [3]: 6.14 µM
GI50 [4]: 2.98 µM
TGI [4]: 35.2 µM
GI50 [5]: 3.1 µM
TGI [5]: 21.4 µM
GI50 [6]: 0.864 µM
TGI [6]: 3.58 µM
GI50 [7]: 2.87 µM
TGI [7]: 10.6 µM
GI50 [8]: 3.25 µM
TGI [8]: 14.7 µM
GI50 [9]: 3.01 µM
TGI [9]: 11.2 µM
GI50 [10]: 0.538 µM
TGI [10]: 2.93 µM
GI50 [11]: 1.17 µM
TGI [11]: 9.09 µM
GI50 [12]: 2.79 µM
TGI [12]: 12.5 µM
GI50 [13]: 1.55 µM
TGI [13]: 3.7 µM
GI50 [14]: 1.42 µM
TGI [14]: 3.84 µM
GI50 [15]: 0.568 µM
TGI [15]: 3.3 µM
GI50 [16]: 1.92 µM
TGI [16]: 10.9 µM
GI50 [17]: 3.25 µM
TGI [17]: 15.5 µM
GI50 [18]: 0.416 µM
TGI [18]: 2.11 µM
GI50 [19]: 0.483 µM
TGI [19]: 1.83 µM
GI50 [20]: 0.515 µM
TGI [20]: 4.06 µM
GI50 [21]: 2.65 µM
TGI [21]: 13.1 µM
GI50 [22]: 0.902 µM
TGI [22]: 4.34 µM
GI50 [23]: 1.95 µM
TGI [23]: 5.86 µM
GI50 [24]: 2.11 µM
TGI [24]: 7.11 µM
GI50 [25]: 20.3 µM
TGI [25]: 80.2 µM
GI50 [26]: 1.92 µM
TGI [26]: 4.56 µM
GI50 [27]: 7.61 µM
TGI [27]: 55.4 µM
GI50 [28]: 2.95 µM
TGI [28]: 13.6 µM
GI50 [29]: 2.22 µM
TGI [29]: 5.91 µM
GI50 [30]: 1.19 µM
TGI [30]: 8.41 µM
GI50 [31]: 0.344 µM
TGI [31]: 1.66 µM
GI50 [32]: 2.46 µM
TGI [32]: > 100 µM
GI50 [33]: 3.6 µM
TGI [33]: 14.8 µM
GI50 [34]: 1.58 µM
TGI [34]: 4.1 µM
GI50 [35]: 2.06 µM
TGI [35]: 7.03 µM
GI50 [36]: 1.63 µM
TGI [36]: 4.46 µM
GI50 [37]: 0.296 µM
TGI [37]: 1.19 µM
GI50 [38]: 0.612 µM
TGI [38]: 8.08 µM
GI50 [39]: 3.82 µM
TGI [39]: 19.8 µM
GI50 [40]: 2 µM
TGI [40]: 5.76 µM
GI50 [41]: 0.343 µM
TGI [41]: 2.03 µM
GI50 [42]: 1.72 µM
TGI [42]: 3.61 µM
GI50 [43]: 1.61 µM
TGI [43]: 5.44 µM
GI50 [44]: 3.03 µM
TGI [44]: 13.3 µM
GI50 [45]: 1.97 µM
TGI [45]: 10.7 µM
GI50 [46]: 0.956 µM
TGI [46]: 9.53 µM
GI50 [47]: 0.871 µM
TGI [47]: 4.15 µM
GI50 [48]: 3.23 µM
TGI [48]: 12.3 µM
GI50 [49]: 0.668 µM
TGI [49]: 2.35 µM
GI50 [50]: 1.97 µM
TGI [50]: 8.82 µM
GI50 [51]: 3.35 µM
TGI [51]: 23.8 µM
GI50 [52]: 1.42 µM
TGI [52]: 18.6 µM
GI50 [53]: 3.82 µM
TGI [53]: 16.6 µM
GI50 [54]: 0.886 µM
TGI [54]: 2.79 µM
GI50 [55]: 1.52 µM
TGI [55]: 8.04 µM
GI50 [56]: 3.22 µM
TGI [56]: 52.7 µM
GI50 [57]: 1.56 µM
TGI [57]: 5.98 µM
